Measured values as given in EP1488698A1, “Compositions for descreasing intracellular inositol trisphosphate concentration and uses thereof” (priority 1995, dated 1997).
Marks after values point to notes of the source that are not given here.

How the values were obtained:
[1] = test system: PC12 cells; assay: Phosphoinositide hydrolysis assay (InsP3 production) in PC12 cells; assay type: cell-based, rat; conditions: for sensitivity of PC12 cells to bradykinin: even at relatively moderate levels
Text: PC12 cells, from a rat adrenal pheochromocytoma cell line, were used as a model of neurons from the peripheral nervous system. These cells were obtained from a common laboratory cell culture stock and grown in plastic culture flasks in Dulbecco's modified Eagle's medium (DMEM) supplemented with 5% heat-inactivated horse serum and 10% heat-inactivated fetal calf serum (PC12 cells are also available from the American Type Culture Collection under the Accession number CRL 1721). The cells were grown at 37°C in 5% CO2 in air until a confluent monolayer formed. The cells were dispersed into 24-well plastic tissue culture plates at a density of 10^5 cells per well and used for the phosphoinositide hydrolysis assays (as described in Example 2).
(§1) Receptor-stimulated and basal unstimulated hydrolysis of phosphoinositides was measured by the following procedure. In order to label the cellular phosphoinositides metabolically, the primary cultures of chick cortical neurons (described in Example 1) were incubated overnight with 0.5 ml Dulbecco's modified Eagle's medium containing 1 µCi [^3H]myo-inositol per well. The cells were then washed twice with 1 ml Dulbecco's phosphate-buffered saline (PBS) and 0.5 ml of PBS containing 4.5 g/L glucose was added. Sphingosine, psychosine, lysosulphatide, or lysosphingomyelin, prepared as the hydrochloride salt dissolved in water, were then added to produce the desired extracellular concentration in specific wells, and the 24-well plates were swirled gently on a rotary shaker for 1 hour at 23°C. The cells were then washed twice with 1 ml PBS, and pre-incubated for 15 minutes at 37°C with 0.5 ml PBS containing 10 mM LiCl and the compound to be tested was added. After 30 minutes, the experiment was terminated by adding 1 ml of ice-cold methanol to each well and transferring the material in each well to polypropylene tubes that contained 0.4 ml water and 1 ml chloroform. The tubes were vortexed thoroughly, then centrifuged at 500 x g for 5 minutes to separate the aqueous and chloroform phases. For each sample, a 1.5-ml aliquot of the upper (aqueous) phase was applied to a small column containing BioRad AG1X8 resin (formate form). Free [^3H]inositol and [^3H]glycerophosphoinositol were washed through the column with 5 ml of a solution containing 5 mM sodium borate and 60 mM sodium formate. The total phosphorylated [^3H] inositol fraction was eluted from the column for radiometric scintillation spectrometry analysis with 3 ml 1.0 M ammonium formate/0.1 M formic acid.
(§2) In addition, a 0.5 ml aliquot of the lower (chloroform) phase of each sample was analyzed radiometrically by scintillation spectrometry in order to determine the quantity of lipid-bound [^3H]myo-inositol. Estimation of phosphoinositide hydrolysis by phospholipase C is based upon the quantity of [^3H]inositol phosphates produced, and is expressed as the percentage of the latter relative to total free and componential [^3H]inositol (dpm ammonium formate + dpm chloroform fractions).

[2] = test system: primary chick cortical neurons; assay: Phosphoinositide hydrolysis assay (InsP3 production) in cultured primary cortical neurons; assay type: cell-based; conditions: for Ins-P-n with Lysosphinogolipid Modulator, agonist Aspartate: 100 μM Aspartate, 20 min, neurons preincubated with 20 μM modulator (or 20 μM + 20 μM Sphingosine), washed, normalized to control = 1.00; for enhancement of InsP3 level caused by sphingosine or by metabotropic glutamate receptor agonists / InsP3 signalling: cortical neurons; for InsP3 signalling: as shown in Table 1
Experimental: The neurons were seeded in 24-well plastic tissue culture plates that had been coated with L-polylysine.
as §1, with “In order to label the cellular phosphoinositides metabolically, the primary cultures of chick cortical neurons (described in Example 1) were incubated overnight with 0.5 ml Dulbecco's modified Eagle's medium containing 1 µCi [^3H]myo-inositol per well.” left out, “and the 24-well plates were swirled gently on a rotary shaker for 1 hour at 23°C.” left out, “After 30 minutes, the experiment was terminated by adding 1 ml of ice-cold methanol to each well and transferring the material in each well to polypropylene tubes that contained 0.4 ml water and 1 ml chloroform.” left out
as §2

[3] = Lysosphingolipid loading of isolated neuronal plasma membrane (fluorescence tagging); assay type: in vitro ADME, chick; conditions: Plasma Membrane Suspension, 10 μmolar exposure
Text: Total lipids were removed from the neuron samples by repeated extraction with chloroform:methanol (2:1, vol:vol). The lysosphingolipids were separated from total neuronal lipid in 90 ± 5 % recovery yield (n = 10) by the stepped chromatographic procedure of Van Veldhoven et al. (Anal. Biochem. 183:177-189, 1989). The recovered lysosphingolipids were stably tagged with NBDZF by the rapid procedure of Nozowa et al. (supra). The fluorescence tagged neuronal lysosphingolipids were separated in parallel with reference standards NBDZF-Sph, NBDZF-Psy, and NBDZF-Lsm on high performance silica gel thin layer chromatography plates with acetonitrile:H2O (10:0.5, vol:vol). The highly fluorescent, well separated bands were scraped from the plate. The fluorescence tagged lysosphingolipids are eluted from the scraped silica gel with methanol:1 N HCl (1:0.02, vol:vol). The fluorescence tagged lysosphingolipid eluates were quantitated against reference standards by fluorescence measurement in a Perkin-Elmer LS-5 Fluorescence Spectrometer.
Physiologically active phospholipase C is present on the endofacial portion of the plasma membrane. A procedure for examining its activity in an intact membrane is provided. The neuronal membrane preparation described below is useful for determining lysosphingolipid effects on the phosphatidylinositol kinase and phospholipase C activities in intact membranes. One hundred Petri dishes of cultured cortical neurons were incubated overnight with 50 µCi [^3H]myo-inositol per mL of culture medium. Ten Petri dish-samples of cultured neurons (1 X 10^8 neurons; 23 ± 2 mg protein, n = 15) were pooled to produce 2.4 ± 0.2 mg plasma membrane by the following procedure. The collected neurons were homogenized in 5 mL 0.32 M sucrose and centrifuged at 1000 X g for 15 minutes. The supernatant was layered on top of 2 ml 1.2 M sucrose and centrifuged at 300,000 X g for 20 minutes. The sedimented pellet was resuspended by sonication for 10 seconds in 50 mM Tris buffer (pH 7.4), containing 0.3 µM CaCl2, 1 mM MgCl2, and 0.01% ascorbic acid.
The suspended plasma membrane preparation was apportioned into 250 µl samples, each providing approximately 100 µg membrane protein. Sphingosine, psychosine, and lysosphingomyelin were added to each plasma membrane sample. […] Samples were analyzed for lysosphingolipid loading (i.e., membrane lysosphingolipid content following exposure to exogenous sphingolipid) by fluorescence tagging. Table 2 provides the results of exposure of plasma membrane samples to 10 µM lysosphingolipids. Values are reported in pmoles lysosphingolipid/mg plasma membrane protein. Values obtained for isolated plasma membrane and intact neurons are compared.

SMILES | InsP3 production ([1]; PC12 cells, Fig 3) | sensitivity of PC12 cells to bradykinin ([1]; Fig 3) | Ins-P-n with Lysosphinogolipid Modulator, agonist Aspartate [2] | enhancement of InsP3 level caused by sphingosine or by metabotropic glutamate receptor agonists [2] | InsP3 signalling [2] | membrane lysosphingolipid content, 0 hours of incubation [3] | membrane lysosphingolipid content, 0.5 hours of incubation [3] | membrane lysosphingolipid content, 1.0 hours of incubation [3] | membrane lysosphingolipid content, 2.0 hours of incubation [3] | membrane lysosphingolipid content, 3.0 hours of incubation [3] | IC50 ([1]; Rattus norvegicus, PC-12, 0.5 h, read-out: concentration sufficient to reduce a metabotropic response to bradykinin to half maximum) | basal, unstimulated level of InsP3 production ([1]; PC12 cells, Fig 3) | basal, unstimulated InsP3 level in cortical neurons [2]
CCCCCCCCCCCCC/C=C/[C@@H](O)[C@@H](N)COP(=O)([O-])OCC[N+](C)(C)C [lysosphingomyelin, sphingosyl phosphorylcholine] | strongly inhibit | can entirely block | 1.00±0.06^e | blocked this enhancement | potently modulated InsP3 signalling | 5±1 pmoles lysosphingolipid/mg plasma membrane protein | 65±15 pmoles lysosphingolipid/mg plasma membrane protein | 110±15 pmoles lysosphingolipid/mg plasma membrane protein | 120±10 pmoles lysosphingolipid/mg plasma membrane protein | 145±25 pmoles lysosphingolipid/mg plasma membrane protein |  |  | 
CCCCCCCCCCCCC/C=C/[C@@H](O)[C@@H](N)CO[C@@H]1O[C@H](CO)[C@H](O)[C@H](O)[C@H]1O [psychosine] | strongly inhibit | can entirely block | 1.00±0.06^e | blocked this enhancement | potently modulated InsP3 signalling | 45±5 pmoles lysosphingolipid/mg plasma membrane protein | 75±20 pmoles lysosphingolipid/mg plasma membrane protein | 120±15 pmoles lysosphingolipid/mg plasma membrane protein | 180±15 pmoles lysosphingolipid/mg plasma membrane protein | 175±20 pmoles lysosphingolipid/mg plasma membrane protein | 50 µM |  | 
CCCCCCCCCCCCC/C=C/[C@@H](O)[C@@H](N)CO [sphingosine] |  |  |  |  | potently modulated InsP3 signalling | 105±5 pmoles lysosphingolipid/mg plasma membrane protein | 113±15 pmoles lysosphingolipid/mg plasma membrane protein | 140±15 pmoles lysosphingolipid/mg plasma membrane protein | 165±20 pmoles lysosphingolipid/mg plasma membrane protein | 175±25 pmoles lysosphingolipid/mg plasma membrane protein |  | tonically upregulated | tonically enhanced
